Assay results as given in ChEMBL document CHEMBL5241106, “Discovery of a Dual Tubulin and Poly(ADP-Ribose) Polymerase-1 Inhibitor by Structure-Based Pharmacophore Modeling, Virtual Screening, Molecular Docking, and Biological Evaluation” (J Med Chem, 2021).
Calls of active or inactive are those of the source. No cut-off for these calls is given here.

Tests used:
[1] = molecular target: CDK4/Cyclin D3 (Homo sapiens, UniProt P11802); assay: Inhibition of CDK4/Cyclin D3 (unknown origin); format: protein-complex assay
[2] = Toxicity in BALB/c mouse xenografted with human MDA-MB-231 cells assessed as effect on hemoglobin level at 1 to 5 mg/kg, ip administered every 4 days for 7 times measured at 48 hrs post-last administration; format: organism-based; conditions: in vivo, 720 h, dose 1-5 mg/kg, time 30 day
[3] = […] of angiogenesis in human HUVEC cells assessed as inhibition of capillary tube formation at 12.5 uM incubated for 8 hrs by inverted microscopic analysis; format: functional; parameters: scale not given: the % may be the effect or the level left
[4] = Hepatotoxicity in BALB/c mouse xenografted with human MDA-MB-231 cells assessed as effect on blood AST level at 1 to 5 mg/kg, ip administered every 4 days for 7 times measured at 48 hrs post-last administration; format: toxicity, organism-based; conditions: in vivo, 720 h, dose 1-5 mg/kg, time 30 day
[5] = system: MDA-MB-231; assay: Induction of cell cycle arrest in human MDA-MB-231 cells assessed as decrease in cyclin B1 expression at 0.5 to 12.5 uM incubated for 48 hrs by western blot analysis; format: functional, cell-based; conditions: dose 0.5-12.5 µM
[6] = system: MDA-MB-231; assay: Anticancer activity against human MDA-MB-231 cells xenografted in BALB/c mouse assessed as reduction in tumor volume at 5 mg/kg, ip administered for every 4 days for 7 times; format: functional, organism-based; conditions: time 28.0 day
[7] = molecular target: T1, Tubulin (Homo sapiens) (UniProt P68371+Q9H4B7+P0DPH7+P68366+Q13509+Q71U36+P04350+Q3ZCM7+P07437+P68363+Q9BQE3+Q6PEY2+Q13885+Q9BVA1+Q9BUF5); assay: Inhibition of tubulin polymerization in human MDA-MB-231 cells assessed as cell shrinkage, increase in nuclear disruption and microtubule dispersion at 0.5 to 2.5 uM incubated for 48 hrs by immunofluorescence assay; format: cell-based; conditions: dose 0.5-2.5 µM
[8] = Toxicity in BALB/c mouse xenografted with human MDA-MB-231 cells assessed as change in kidney morphological changes at 1 to 5 mg/kg, ip administered every 4 days for 7 times measured at 48 hrs post-last administration by H and E staining based fluorescence microscopic analysis; format: organism-based; conditions: in vivo, 720 h, dose 1-5 mg/kg, time 30 day
[9] = system: MDA-MB-231; assay: Induction of apoptosis in human MDA-MB-231 cells assessed as increase in cleaved PARP level at 0.5 to 12.5 uM incubated for 48 hrs by western blot analysis; format: functional, cell-based; conditions: dose 0.5-12.5 µM
[10] = system: MDA-MB-231; assay: Induction of apoptosis in human MDA-MB-231 cells assessed as viable cells at 0.5 uM incubated for 48 hrs by Annexin V-FITC/PI staining based flow cytometry (reference value: 91.4%); format: functional; conditions: read-out: Activity
[11] = system: MDA-MB-231; assay: Induction of apoptosis in human MDA-MB-231 cells assessed as early apoptotic cells at 12.5 uM incubated for 48 hrs by Annexin V-FITC/PI staining based flow cytometry (reference value: 1.71%); format: functional
[12] = system: HepG2; assay: Cytotoxicity against human HepG2 cells assessed as inhibition of cell growth incubated for 72 hrs by MTT assay; format: functional, cell-based; conditions: HepG2, 72 h
[13] = molecular target: T1, Tubulin (Homo sapiens); assay: Inhibition of tubulin polymerization in human MCF-10A cells assessed as destruction of normal microtubule network at 0.5 to 12.5 uM incubated for 48 hrs by immunofluorescence assay; format: cell-based; conditions: dose 0.5-12.5 µM
[14] = system: MDA-MB-231; assay: Induction of cell cycle arrest in human MDA-MB-231 cells assessed as proportion of cells at G2/M phase at 0.5 uM incubated for 48 hrs by propidium iodide staining based flow cytometry (reference value: 9.81%); format: functional
[15] = system: HUVEC; assay: […] of angiogenesis in human HUVEC cells assessed as inhibition of capillary tube formation incubated for 8 hrs by inverted microscopic analysis; format: functional, cell-based; conditions: dose 0.5-12.5 µM
[16] = molecular target: Epidermal growth factor receptor (Homo sapiens, UniProt P00533); assay: Inhibition of EGFR (unknown origin)
[17] = Renal toxicity in BALB/c mouse xenografted with human MDA-MB-231 cells assessed as effect on blood urea nitrogen level at 1 to 5 mg/kg, ip administered every 4 days for 7 times measured at 48 hrs post-last administration; format: organism-based; conditions: in vivo, 720 h, dose 1-5 mg/kg, time 30 day
[18] = system: MDA-MB-231; assay: Induction of apoptosis in human MDA-MB-231 cells assessed as apoptotic body formation by measuring change in cell morphology with disruption of cell nuclei incubated for 24 hrs by DAPI staining based confocal laser microscopy; format: functional; conditions: dose 0.5-12.5 µM
[19] = molecular target: Poly [ADP-ribose] polymerase 1 (Homo sapiens, UniProt P09874); assay: Inhibition of PARP1 (unknown origin) using [3H]NAD+ as substrate incubated for 15 mins by scintillation counting analysis; conditions: read-out: IC50
[20] = system: MDA-MB-231; assay: Anticancer activity against human MDA-MB-231 cells xenografted in BALB/c mouse assessed as reduction in tumor weight at 5 mg/kg, ip administered for every 4 days for 7 times; format: functional, organism-based; conditions: time 28.0 day
[21] = system: MDA-MB-231; assay: Induction of apoptosis in human MDA-MB-231 cells assessed as early apoptotic cells at 2.5 uM incubated for 48 hrs by Annexin V-FITC/PI staining based flow cytometry (reference value: 1.71%); format: functional
[22] = molecular target: Tubulin (Bos taurus) (UniProt Q6B856+Q862L2+Q862F3); assay: Inhibition of [3H]colchicine binding to tubulin to bovine brain tubulin at 5 to 50 uM by competitive binding assay; format: tissue-based; conditions: dose 5-50 µM
[23] = system: MDA-MB-231; assay: Induction of cell cycle arrest in human MDA-MB-231 cells assessed as proportion of cells at G2/M phase at 2.5 uM incubated for 48 hrs by propidium iodide staining based flow cytometry (reference value: 9.81%); format: functional
[24] = Cytotoxicity against human MCF-10A cells assessed as inhibition of cell growth incubated for 72 hrs by MTT assay; format: toxicity, cell-based
[25] = system: MDA-MB-231; assay: Induction of apoptosis in human MDA-MB-231 cells assessed as viable cells at 2.5 uM incubated for 48 hrs by Annexin V-FITC/PI staining based flow cytometry (reference value: 91.4%); format: functional; conditions: read-out: Activity
[26] = system: MDA-MB-231; assay: Induction of apoptosis in human MDA-MB-231 cells assessed as necrotic cells at 12.5 uM incubated for 48 hrs by Annexin V-FITC/PI staining based flow cytometry (reference value: 1.86%); format: functional
[27] = system: MDA-MB-231; assay: Inhibition of colony formation in human MDA-MB-231 cells measured after 10 days by crystal violet staining based analysis; format: functional, cell-based; conditions: dose 0.5-12.5 µM, time 10.0 day

IC50 [1]: > 10 µM | inhibition [7]: Active | inhibition [13]: inactive | IC50 [16]: > 10 µM | IC50 [19]: 480 nM | inhibition [22]: Active
Structure (SMILES): O=c1[nH]c(/C=C/c2cccc(F)c2)nc2ccccc12
Activity [2]: Non-Toxic | Activity [3]: 100% | Activity [4]: Non-Toxic | Activity [5]: Active | Activity [6]: Active | Activity [8]: Non-Toxic | Activity [9]: Active | viability at 0.5 µM [10]: 90.6% | Activity [11]: 3.32% | IC50 [12]: 900 nM | Activity [14]: 23.57% | Activity [15]: Dose-Dependent Effect | Activity [17]: Non-Toxic | Activity [18]: Dose-Dependent Effect | Activity [20]: Active | Activity [21]: 2.23% | Activity [23]: 33.56% | IC50 at 72 h [24]: > 10 µM | viability at 2.5 µM [25]: 90.2% | Activity [26]: 4.29% | inhibition [27]: Dose-Dependent Effect
